# “Also recorded” adds a separate entry of the source.
# Tests used:
# [1] = system: eosinophils; details: oral treatment; histamine-induced guinea pig eye model; cited from earlier work
# [2] = system: TNF-α; assay: TNF-α expression by PHA-stimulated human PBMC, ELISA of supernatant; format: cell-based; details: PHA 50 μg/ml, 24 hours; 10^−4 M
# Description: PBMC (2×10^6/ml) from 2 donors were stimulated with 50 μg/ml, PHA; or with astaxanthin (10^−6 M); or with the ginkgolide BN52021 (GB) (10^−4 M); or with a combination of astaxanthin (10^−6 M) plus GB (10^−4 M); or with media. Cells were cultured 24 hours at 37° C., 5% CO2 and analyzed by ELISA for supernatant concentration of TNF-α. Each data point is the mean of triplicate samples.
# [3] = system: CD3+CD25+ T lymphocytes in human PBMC; assay: PHA induction of CD25+ on CD3+ T cells, PBMC from asthma patients (Example 5); format: cell-based; details: PHA 50 μg/ml, 24 hours
# Description: (§1) Experiments were carried out to determine whether the immunoregulatory capacity of two commonly-used H1-inhibitory antihistamines: cetirizine dihydrochloride (CTZ/Zyrtec) and azelastine ([…]) is potentiated by the platelet activating factor receptor (PAFR) antagonist and free radical scavenger Ginkgolide B (GB). […] Each drug was first evaluated independently over a 3-log dose range from 10^-8-10^-6 M.
# [4] = system: CD3+HLA-DR+ T lymphocytes in human PBMC; assay: PHA induction of HLA-DR+ on CD3+ T cells, PBMC from asthma patients (Example 5); format: cell-based; details: for SI HLA-DR: PHA 50 μg/ml, 24 hours
# Description: as §1
# [5] = system: CD3+CD25+ cells in human PBMC; assay: T lymphocyte activation (CD3+CD25+) in PHA-stimulated PBMC of asthma patients (Example 6); format: cell-based; details: PHA 50 μg/ml, 24 hours
# Description: Experiments were carried out to determine whether formulations based on the platelet activating factor receptor (PAFR) antagonist and free radical scavenger Ginkgolide B (GB) in combination with the antioxidant carotenoid astaxanthin (ASX) suppress T cell activation in the same dose range as two commonly-used antihistamines: cetirizine dihydrochloride (CTZ/Zyrtec) and azelastine ([…]). […] Results are reported as stimulation indices (SI) of % CD3+CD25+ cells in cultures treated with PHA alone to % CD3+CD25+ cells in each drug-supplemented culture. […] Subjects for this study included 12 patients diagnosed with atopic asthma, 7 male and 5 female, ranging in age from 21 to 40 years (mean 28±1.8 years). Disease duration ranged from 2 to 12 years. Atopy was defined on the basis of one or more positive skin prick tests to a range of 20 allergens. None of the patients had received systemic therapy for at least 6 weeks prior to blood collection. The mean serum IgE was 335 (170-480) IU/ml. Venous blood for each subject was collected in polyethylene tubes containing EDTA during a one hour morning time interval. PBMC were separated by Ficoll-paque (Pharmacia, Uppsala, Sweden) density gradient centrifugation. Cells were washed and suspended in RPMI 1640 medium (Gibco BRL, Gaithersburg, Md.) at density of 1×10^6 cells/ml. PBMC were stimulated with 50 μg/ml Phytohemaglutinin (PHA) (Sigma Immunopharmaceuticals, St. Lous Mo.), or PHA plus 10^-8-10^-5 M astaxanthin (Natural Alternatives International (NAI) Inc., San Marcos Calif.); or ginkgolide B 10^-8-10^-6 M (NAI San Marcos Calif.); or selected combinations of ASX plus GB. Comparison of ASX and GB effects on T cell activation were made with two other pharmacological agents with anti-asthmatic properties by treating cells with 10^-7-10^-4 M cetirizine dihydrochloride (Pfizer Pharmaceuticals, Norwich Conn.); or 10^-7-10^-4 M azalestine hydrochloride (Wallace Pharmaceuticals, Somerset N.J.), followed by evaluation of cultures for the same biological endpoints as ASX/GB-treated cells. Each reagent was added at the outset of a 24 hours culture period, followed by harvest of cellular fraction for immunophenotyping studies. […] Two-color Flow cytometry was conducted using a Coulter Epics XL automated flow cytometer (Coulter Scientific, Hialeah, Fla., USA). Isotypic controls for the monoclonal antibodies (mAb) used to detect antigens of interest were established for each cell preparation. Positive analysis regions for cells expressing specific surface markers were set against controls and specific binding of fluorophore-conjugated mAb was analyzed by cytofluorography according to standard methods recommended by the manufacturer. Lymphocyte subpopulations were identified by position on forward and side scatter plots and live-gated. Expression of each antigen was reported as percentage cells positive for a particular T cell subpopulation defined by expression of CD3 (T lymphocyte marker) plus CD25, plus or minus standard error. Statistical analysis was performed using an independent t-test. All statistical analyses were performed using the SPSS for Windows statistical package (Norusis/SPSS, Inc.). […] The capacity of formulations evaluated in this study to suppress immune activation was measured as a stimulation index (SI), defined as the ratio of […].
# [6] = system: ovalbumin(OA)-induced asthma in guinea pigs; assay: Ovalbumin-induced asthma in guinea pigs: inflammatory cells in BAL fluid; format: in vivo, guinea pig; details: components used separately: 10 mg/kg AX, 200 mg/kg vit C, 10 mg/kg GB
# Description: The effect combinations of vitamin C, astaxanthin, and ginkolide on asthma-associated disease parameters ovalbumin(OA)-induced asthma in guinea pigs was evaluated. Twenty-four hours following OA challenge, animals are sacrificed and numbers of inflammatory cells (eosinophils, neutrophils, macrophages) are measured in bronchoalveolar lavage (BAL) fluid; and cAMP and cGMP concentrations in the lung tissue. The experiments were carried out as follows. Male Hartley guinea pigs (250-350 g) were sensitized by intramuscular injections of 0.35 ml of a 5% (W/V) ovalbumin (OA)/saline solution into each thigh on days 1 and 4. Guinea pigs were ready for asthmatic challenge after 25 days of ovalbumin injection. Asthmatic challenge was carried out with ovalbumin aerosol, and bronchoalveolar lavage (BAL) was done 24 hours later. The numbers of eosinophils, neutrophils, and macrophages in the BAL fluid were counted. Twenty-four hours after the aerosol OA challenge, guinea pigs were killed by cervical dislocation and exsanguinated by severing the axillary arteries. Lungs were lavaged with 50 ml of DulBecco's phosphate-buffered saline (aliquots of 10 ml), which were aspirated after gentle chest massage. BAL fluid was centrifuged at 2200 rpm (1100×g) for 10 min, supernatant was aspirated, and pellets were resuspended in 5 ml 0.25% NaCl to lyse residual erythrocytes. This dispersion was centrifuged at 2200 rpm (1100×g) for 10 min, supernatant was aspirated, and pellets were resuspended 5 ml 0.9% NaCl. Total cell counts were done by hemocytometry using trypan blue stain. Slides were prepared on a Shandon Cytospin 2 (Pittsburgh, Pa.) at 300 rpm for 5 min, fixed and stained. Differential cell counts were done using standard morphologic criteria to classify cells as eosinophils, neutrophils, or macrophages, and the results were expressed in cell numbers. The dose-responsive effect of AX, EGb761, and vitamin C administered independently for suppression of asthma-associated parameters in allergen-induced, asthmatic guinea pigs was determined. Ibuprophen (IB) was used as the positive control. Concentration of inflammatory cells in bronchoalveolar lavage (BAL) fluid and levels of cAMP and cGMP in lung tissue were measured in guinea pigs 24 hours following challenge with OV. Data is reported as mean±SD of measurements taken in 6 animals per dosage cohort. *p<0.05 compared to corresponding values of OV antigen-challenged, drug-free control group. The dose-responsive effect of AX, EGb761, and vitamin C administered in combination for suppression of asthma-associated parameters in allergen-induced, asthmatic guinea pigs was determined. The combination of these three components was given each day for each guinea pig as a “cocktail”. Concentration of inflammatory cells in bronchoalveolar lavage (BAL) fluid and levels of cAMP and cGMP in lung tissue were measured in guinea pigs 24 hours following challenge with OV. Data is reported as mean±SD of measurements taken in 6 animals per dosage cohort. *p<0.05 compared to corresponding values of OV antigen-challenged, drug-free control group.
# [7] = system: CD3+CD25+ lymphocytes in human PBMC; assay: PHA-mediated induction of CD3+CD25+ lymphocytes in human PBMC (Example 8); format: cell-based; details: PHA 50 μg/ml, 24 hours
# Description: (§2) Cells from 3-12 asthma patients were cultured 24 hours with 50 μg/ml PHA. PBMC evaluated by 2-color flow cytometry were gated for CD3+ and analyzed for CD3+CD25+ or CD3+HLA-DR+ as a percentage of the CD3+ population. Results are reported as stimulation indices (SI) calculated as the ratio of % CD3+CD25+ cells or % CD3+HLA-DR+ cells in fully-stimulated cultures to % CD3+CD25+ or % CD3+HLA-DR+ respectively in cells treated with PHA plus ASX, GB, or combinations thereof.
# [8] = system: CD3+HLA-DR+ lymphocytes in human PBMC; assay: PHA-mediated induction of CD3+HLA-DR+ lymphocytes in human PBMC (Example 8); format: cell-based; details: PHA 50 μg/ml, 24 hours
# Description: as §2
# [9] = target: PAF (Homo sapiens, UniProt P25105); details: cited from earlier work
# [10] = system: cAMP-phosphodiesterase; details: cited from earlier work
# Sequence of PAF (P25105 whole entry): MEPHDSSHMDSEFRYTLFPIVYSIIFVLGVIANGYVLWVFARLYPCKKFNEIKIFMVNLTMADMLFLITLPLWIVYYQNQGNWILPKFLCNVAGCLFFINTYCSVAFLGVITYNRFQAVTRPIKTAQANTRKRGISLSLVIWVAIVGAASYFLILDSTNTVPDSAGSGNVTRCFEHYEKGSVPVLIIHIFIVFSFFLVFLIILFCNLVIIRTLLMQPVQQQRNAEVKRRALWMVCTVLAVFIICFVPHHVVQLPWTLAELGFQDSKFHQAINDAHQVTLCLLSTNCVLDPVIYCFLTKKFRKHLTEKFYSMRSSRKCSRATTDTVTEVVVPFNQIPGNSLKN
smiles,measurement,setting,value
COc1ccc(C2CNC(=O)C2)cc1OC1CCCC1 (centres unmarked) [rolipram],infiltrate of eosinophils,[1],significantly suppressed infiltrate
"CC1C(=O)OC2C(O)C34C5CC(C(C)(C)C)C36C(OC(=O)C6O)OC4(C(=O)O5)C12O (centres unmarked) [GB, Ginkgolide B]",TNF-alpha,[2],1689.21 pg/mL
same,SI CD25,[3]; 10^−6 M,0.94 ± 0.12
same,SI CD25,[3]; 10^−7 M,1.18 ± 0.21
same,SI CD25,[3]; 10^−8 M,0.81 ± 0.14
same,decrease in SI for HLA-DR,[4]; 10^−8 M,39%
same,SI HLA-DR,[4]; 10^−6 M,0.72 ± 0.18
same,SI HLA-DR,[4]; 10^−7 M,0.62 ± 0.18
same,SI HLA-DR,[4]; 10^−8 M,0.61 ± 0.10
same,SI (CD3+CD25+),[5]; 10^−6 M,0.77±0.12
same,SI (CD3+CD25+),[5]; 10^−8 M,0.86±0.07
same,protection against OV-induced asthma,[6],failed to protect; also recorded: failed to reduce the severity of asthma
same,CD3+CD25+ Stimulation Index,[7]; 10^−6 M,0.83 ± 1.0
same,CD3+CD25+ Stimulation Index,[7]; 10^−7 M,0.92 ± 0.08
same,CD3+CD25+ Stimulation Index,[7]; 10^−8 M,0.90 ± 0.07
same,CD3+HLA-DR+ Stimulation Index,[8]; 10^−6 M,0.66 ± 0.06
same,CD3+HLA-DR+ Stimulation Index,[8]; 10^−7 M,0.78 ± 0.20
same,CD3+HLA-DR+ Stimulation Index,[8]; 10^−8 M,0.73 ± 0.12
COc1ccc(NC(=S)N2CCc3c(sc4c3C(c3ccccc3Cl)=NCc3nnc(C)n3-4)C2)cc1 [BN 50730],PAF antagonistic activity in vitro compared with BN52021,[9],several ten-folds more potent
COc1ccc(-c2cc(=O)c3c(O)cc(O)c(-c4cc(-c5cc(=O)c6c(O)cc(OC)cc6o5)ccc4OC)c3o2)cc1 [sciadopitysin],"degree of enzyme inhibition (cAMP-phosphodiesterase), order",[10],almost no capacity for inhibition
